# Source: US20070021501A1, “Methods of treating epileptogenesis” (priority 2005, published 2007)
# Key:
# [1] = tested on: lithium-pilocarpine model of temporal lobe epilepsy in the rat; assay: Quantification of cell densities (neuronal counting) 14 days after Li-pilo SE (Example 2); conditions: 14 days after SE; for cell loss: hippocampus CA1 pyramidal cell layer
# Procedure: All rats received lithium chloride (3 meq/kg, i.p., Sigma, St Louis, Mo., U.S.A.) and about 20 h later, all animals received also methylscopolamine bromide (1 mg/kg, s.c., Sigma) that was administered to limit the peripheral effects of the convulsant. […] The effects of increasing doses of TC were studied in 5 groups of rats. […] The control group received vehicle instead of pilocarpine and TC.
# For neuronal counting, animals were deeply anesthetized with 1.8 g/kg pentobarbital (Dolethal®, Vétoquinol, Lure, France). Brains were then removed and frozen. Serial 20 μm slices were cut in a cryostat, air-dried during several days before thionine staining. […] The grid of counting was placed on a well defined area of the cerebral structure of interest and counting was carried out with a microscopic enlargement of 200- or 400-fold defined for each single cerebral structure. Cell counts were performed twice on each side of three adjacent sections for each region by a single observer unaware of the animal's treatment. The number of cells obtained in the 12 counted fields in each cerebral structure was averaged. This procedure was used to minimize the potential errors that could result from double counting leading to overestimation of cell numbers. […] Counts involved only neurons with cell bodies larger than 10 μm. Cells with small cell bodies were considered as glial cells and were not counted.
# For neuronal damage and epileptogenesis, statistical analysis between groups was performed by means of a one-way analysis of variance followed by a post-hoc Dunnett or Fisher test using the Statistica software.
# [2] = tested on: lithium-pilocarpine status epilepticus in the rat; assay: Mortality induced by SE, lithium-pilocarpine model (Example 1); format: in vivo
# Source text: The model induced in rats by pilocarpine associated with lithium (Li-Pilo) reproduces most of the clinical and neurophysiological features of human temporal lobe epilepsy (Turski et al., 1989, Synapse 3:154-171; Cavalheiro, 1995, Ital J Neurol Sci 16:33-37). In adult rats, the systemic administration of pilocarpine leads to status epilepticus (SE). The lethality rate reaches 30-50% during the first days. In the surviving animals, neuronal damage predominates within the hippocampal formation, the piriform and entorhinal cortices, thalamus, amygdaloid complex, neocortex and substantia nigra.
# (§1) Male Wistar rats weighing 225-250 g, provided by Janvier Breeding Center (Le Genest-St-lste, France) were housed under controlled standard conditions (light/dark cycle, 7.00 a.m.-7.00 p.m. lights on), with food and water available ad libitum. All animal experimentation was performed in accordance with the rules of the European Communities Council Directive of Nov. 24, 1986 (86/609/EEC), and the French Department of Agriculture (License N^o 67-97). For electrode implantation, rats were anesthetized by an i.p. injection of 2.5 mg/kg diazepam (DZP, Valium, Roche, France) and […] ketamine chlorhydrate (Imalgene 1000, Rhone Merrieux, France). Four single-contact recording electrodes were placed on the skull, over the parietal cortex, two on each side.
# (§2) The bilateral EEG cortical activity was recorded during the whole duration of SE and behavioral changes were noted.
# The effects of increasing doses of the test compound were studied on 3 groups of rats. The animals of the first group received 10 mg/kg of the test compound, i.p., 1 h after the onset of SE (pilo-TC10) while the animals of groups 2 and 3 received 30 and 60 mg/kg of the test compound (pilo-TC30 and pilo-TC60), respectively.
# The control group received saline instead of pilocarpine and the test compound (saline-saline). […] Pilo-DZP received a second injection of 1 mg/kg DZP on the day of SE at about 10 h after the first one. Thereafter, Pilo-DZP and saline-saline rats received twice daily an equivalent volume of saline.
# [3] = tested on: lithium-pilocarpine status epilepticus in the rat; assay: EEG patterns during and after Li-pilo SE (Example 1); format: in vivo
# Procedure: as §1, §2
# The effects of the test compound on the EEG and on the latency to occurrence of SRS were investigated by daily video recording of the animals for 10 h per day and the recording of the electrographic activity twice a week for 8 h.
# [4] = tested on: lithium-pilocarpine model of temporal lobe epilepsy in the rat; assay: Mossy fiber sprouting in hippocampus, Timm staining (Example 1); format: in vivo
# Procedure: At 2 months after the onset of spontaneous recurrent seizures, mossy fiber sprouting was examined on rats in the chronic period exposed to the test compound or DZP and in 3 saline-saline rats. Animals were deeply anaesthetized and perfused transcardially with saline followed by 100 ml of 1.15% (w/v) Na2S in 0.1 M phosphate buffer, and 100 ml of 4% (v/v) formaldehyde in 0.1 M phosphate buffer. Brains were removed from skull, post-fixed in 4% formaldehyde during 3-5 h and 40 μm sections were cut on a sliding vibratome and mounted on gelatin-coated slides.
# The following day, sections were developed in the dark in a 26° C. solution of 50% (w/v) arabic gum (160 ml), sodium citrate buffer (30 ml), 5.7% (w/v) hydroquinone (80 ml) and 10% (w/v) silver nitrate (2.5 ml) during 40-45 min. The sections were then rinsed with tap water at 40° C. during at least 45 min, rinsed rapidly with distilled water and allowed to dry. They were dehydrated in ethanol and coverslipped.
# Mossy fiber sprouting was evaluated according to criteria previously described in dorsal hippocampus (Cavazos et al., 1991, J Neurosci 11:2795-2803.), which are follows: 0—no granules between the tips and crest of the DG; 1—sparse granules in the supragranular region in a patchy distribution between the tips and crest of DG; 2—more numerous granules in a continuous distribution between the tips and crest of DG; 3—prominent granules in a continuous pattern between tips and crest, with occasional patches of confluent granules between tips and crest; 4—prominent granules that form a confluent dense laminar band between tips and crest and 5—confluent dense laminar band of granules that extends into the inner molecular layer.
# [5] = tested on: lithium-pilocarpine status epilepticus in the rat; assay: Mortality over the first 48 h after Li-pilo SE (Example 2); format: in vivo, Sprague-Dawley rats
# Procedure: Adult male Sprague-Dawley rats provided by Janvier Breeding Center (Le Genest-St-lsle, France) were housed under controlled, uncrowded standard conditions at 20-22° C. (light/dark cycle, 7.00 a.m.-7.00 p.m. lights on), with food and water available ad libitum. All animal experimentation was performed in accordance with the rules of the European Communities Council Directive of Nov. 24, 1986 (86/609/EEC), and the French Department of Agriculture (License N^o 67-97).
# [6] = tested on: lithium-pilocarpine model of temporal lobe epilepsy in the rat; assay: Latency to and frequency of spontaneous seizures, video recording (Example 2); format: in vivo, Sprague-Dawley rats
# Procedure: The effects of DZP and the 4 doses of TC on epileptogenesis were investigated by daily video recording of the animals for 10 h per day. Video recording was performed for 4 weeks during which the occurrence of the first seizure was noted as well as the total number of seizures over the whole period. Animals were then taken off the video recording system and kept for 4 additional weeks in our animal facilities before they were sacrificed after a total period of 8 weeks of epilepsy.
structure (smiles),measurement,setting,value
NC(=O)OC[C@@H](O)c1ccccc1Cl [TC],neurons surviving,"[1]; TC 120 mg/kg, all parts of the entorhinal cortex (range)",85-94%
same,neuronal loss,"[1]; TC 120 mg/kg, hilus of dentate gyrus",53%
same,cell loss,[1]; TC 120 mg/kg,12%
same,neuronal drop out,"[1]; TC 120 mg/kg, thalamic nuclei (range)",4-19%
same,cell loss (drop out),"[1]; TC30, 60 and 90 groups (range printed together with DZP group), hilus of dentate gyrus",61-66%
same,cell loss,"[1]; TC30, 60 or 90 rats (range over groups)",36-47%
same,mortality during the first 48 h after SE,[2]; TC 10 mg/kg i.p. 1 h after onset of SE (6/23),26%
same,mortality during the first 48 h after SE,[2]; TC 30 mg/kg i.p. 1 h after onset of SE (5/25),20%
same,mortality during the first 48 h after SE,"[2]; TC 60 mg/kg i.p. 1 h after onset of SE (1/23), p<0.01",4%
same,EEG after injection at 24 and 48 h after SE (silent period),"[3]; TC 10 mg/kg, between 1 and 8 h after injection",no change
same,EEG by 6-7 h of SE,"[3]; TC 10 mg/kg, cortex and hippocampus",spiking activity was still present in the cortex and the hippocampus
same,amplitude of the EEG by 6-7 h of SE,"[3]; TC 30 mg/kg, hippocampus",came back to baseline levels
same,amplitude of the EEG by 6-7 h of SE,"[3]; TC 60 mg/kg, hippocampus and cortex",came back to baseline levels
same,EEG after injection at 24 and 48 h after SE (silent period),"[3]; TC 30 and 60 mg/kg, as soon as 10 min after injection",frequency and amplitude of PEDs decreased
same,mean Timm score in the upper blade of the dentate gyrus,[4]; TC 10 mg/kg (n=7),1.5±0.6
same,mean Timm score in the upper blade of the dentate gyrus,[4]; TC 30 mg/kg (n=10),2.6±1.0
same,mean Timm score in the upper blade of the dentate gyrus,"[4]; TC 60 mg/kg, whole group (n =11)",1.5±0.7
same,mortality over the first 48 h after SE,"[5]; TC 30 mg/kg, group devoted to cell counting at 14 days (4/12)",33%
same,mortality over the first 48 h after SE,"[5]; TC 30 mg/kg, group devoted to latency to SRS and late cell counting (3/11)",27%
same,mortality over the first 48 h after SE,"[5]; TC 60 mg/kg, group devoted to cell counting at 14 days (1/12)",8%
same,mortality over the first 48 h after SE,"[5]; TC 60 mg/kg, group devoted to latency to SRS and late cell counting (0/10)",0%
same,mortality over the first 48 h after SE,"[5]; TC 90 mg/kg, group devoted to cell counting at 14 days (0/10)",0%
same,mortality over the first 48 h after SE,"[5]; TC 90 mg/kg, group devoted to latency to SRS and late cell counting (0/11)",0%
same,mortality over the first 48 h after SE,"[5]; TC 120 mg/kg, group devoted to cell counting at 14 days (4/12)",33%
same,mortality over the first 48 h after SE,"[5]; TC 120 mg/kg, group devoted to latency to SRS and late cell counting (0/9)",0%
same,frequency of spontaneous seizures over the four weeks of recording,[6]; TC 30 mg/kg,tendency to be higher
same,percentage of rats with short latencies to seizures (shorter than 40 days after SE),[6]; TC 90 mg/kg (4/11),36%
same,percentage of non-epileptic rats (no seizure over 150 days post-SE),[6]; TC 120 mg/kg,45%
same,percentage of rats with short latencies to seizures (shorter than 40 days after SE),[6]; TC 120 mg/kg (1/9),11%
same,frequency of spontaneous seizures over the four weeks of recording,"[6]; TC60, 90 and 120 groups",lower
